Assay results published in patent US20060088579A1, “Transdermal drug delivery systems” (priority 2002, published 2006).
Several values for one entry are separate records, joined by “and”; a condition that tells them apart may be missing. Identical values can stand only once. Counter-ions that a name gives are not always drawn.

Experiments:
[1] = human, pH 7.4
[2] = Microemulsion phase diagrams, drug load and stability; assay type: physicochemical; settings: O/W ME
Description: (i) Microemulsion Phase Diagrams. Four microemulsion (ME) systems were investigated to determine their ternary phase diagrams. All percentages are given as mass ratios.
Each of the three components for a system was titrated until a phase change between microemulsion and two phase mixture was observed. The boundary of this transition was recorded over the entire concentration range. A microemulsion was determined as a miscible, optically clear, stable solution. At the transition to a two phase regime, there is a clear clouding of the mixture as well as an eventual separation of the phases.
(ii) Preparation of Formulations. […] Drug flux was tested through ME system 1 at two selected concentrations, one in the W/O region, and the other in the O/W. The W/O system consisted of H2O:IPM:Tween 80 (10:52:38 w/w) while the O/W system contained H2O:Ethanol:IPM:Tween 80 (27:18:16:39 w/w). Both systems stably incorporated 10% w/w NMP and 10% w/w oleyl alcohol. […] The “water phase” sample consisted of the aqueous elements H2O:Ethanol:NMP (51:31:18) in the same relative proportions as if the organic components were removed.

[3] = LDA chaperoning: lidocaine and NMP flux with 1% LDA in IPM or NMP solvent; assay type: in vitro ADME, human; settings: for NMP Fluxss: NMP solvent
Text: (ii) Preparation of Skin Samples. […] (iii) Transport Experiments. […] J. […] (iv) LDA Chaperoning. […] The LDA's included octadecene, oleyl alcohol, and oleic acid. Similar solutions with NMP as the solvent were also obtained. […] (viii) Quantification of Transport. […] (ix) Calculations. […] D. Results

[4] = IPM/NMP binary vehicle transport, 2% w/v lidocaine free base; assay type: in vitro ADME, human
Text: (iii) Preparation of Skin Samples. […] (iv) Lidocaine Transport Experiments. […] J. […] (v) IPM/NMP Binary Vehicle Transport. […] (vi) Quantification of Lidocaine. […] (vii) Calculations.

[5] = NMP partitioning between IPM and H2O; assay type: physicochemical; settings: equilibrium mixture of H2O and IPM
Description: (vii) NMP Patitioning. Distilled water (2 ml), IPM (2 ml), and NMP (40 μl) were thoroughly vortexed in a glass tube. After equilibrating for 1 hour, the sample was centrifuged at 14,000 rpm for 6 minutes and separated into 2 phases. Samples of each phase were taken to determine NMP concentration by HPLC.
(viii) Quantification of Transport.

in vitro = settings: human, pH 7.4
[6] = H2O/NMP binary vehicle transport
[7] = human, 24 h, 2 % w/v, pH 7.4
Description: Flux through stripped human skin was compared with flux of the same drugs through distilled water. […] All drug concentrations were analyzed by HPLC.

Structure (SMILES): C[C@]12CC[C@@H]3c4ccc(O)cc4CC[C@H]3[C@@H]1CC[C@@H]2O [Estradiol]
- time at which steady state is reached in vitro [1]: about 4 hours

Structure (SMILES): CCCCCCCCCCCCCC(=O)OC(C)C [IPM, isopropyl myristate]
- % IPM Uptake (maximum) ([2]; Tween 80/Ethanol ratio 1:1): 47 % (w/w)
- % IPM Uptake (maximum) ([2]; Tween 80/Ethanol ratio 1:2): 8.3 % (w/w)
- % IPM Uptake (maximum) ([2]; Tween 80/Ethanol ratio 2:1): 42 % (w/w)
- % IPM Uptake (maximum) ([2]; Tween 80/Ethanol ratio 2:3): 8.1 % (w/w)
- % IPM Uptake (maximum) ([2]; Tween 80/Ethanol ratio 4:1): 4.5 % (w/w)
- % IPM Uptake (maximum) ([2]; Tween 80/Ethanol ratio 9:1): 1.6 % (w/w)

Structure (SMILES): CN1CCCC1=O [NMP, n-methyl pyrrolidone]
- NMP Fluxss ([3]; 1% w/v isopropyl myristate): 15.8 ± 3.6 mg/cm^2/hr
- NMP Fluxss ([3]; 1% w/v octadecene): 15.3 ± 1.2 mg/cm^2/hr
- NMP Fluxss ([3]; 1% w/v oleic acid): 17.6 ± 2.0 mg/cm^2/hr
- NMP Fluxss ([3]; 1% w/v oleyl alcohol): 20.7 ± 1.0 mg/cm^2/hr
- NMP Fluxss ([3]; no LDA): 12.6±0.5 mg/cm^2/hr
- flux of NMP through human skin ([3]; approximate value): ~10 mg/cm^2/hr
- NMP 24 Hour Transport ([4]; 10% NMP (v/v)): 22.8 ± 3.7 µg
- NMP Fluxss ([4]; 10% NMP (v/v)): 1.46 ± 0.9 μg cm^−2 hr^−1
- NMP 24 Hour Transport ([4]; 25% NMP (v/v)): 83.6 ± 5.7 µg
- NMP Fluxss ([4]; 25% NMP (v/v)): 5.40 ± 0.49 μg cm^−2 hr^−1
- NMP 24 Hour Transport ([4]; 50% NMP (v/v)): 112 ± 5.3 µg
- NMP Fluxss ([4]; 50% NMP (v/v)): 9.01 ± 0.84 μg cm^−2 hr^−1
- NMP 24 Hour Transport ([4]; 60% NMP (v/v)): 134 ± 13 µg
- NMP Fluxss ([4]; 60% NMP (v/v)): 11.2 ± 1.2 μg cm^−2 hr^−1
- NMP 24 Hour Transport ([4]; 75% NMP (v/v)): 161 ± 6 µg
- NMP Fluxss ([4]; 75% NMP (v/v)): 14.0 ± 0.9 μg cm^−2 hr^−1
- NMP 24 Hour Transport ([4]; 90% NMP (v/v)): 128 ± 1 µg
- NMP Fluxss ([4]; 90% NMP (v/v)): 11.7 ± 0.1 μg cm^−2 hr^−1
- NMP 24 Hour Transport ([4]; 100% NMP (v/v)): 115 ± 0.2 µg
- NMP Fluxss ([4]; 100% NMP (v/v)): 10.7 ± 0.2 μg cm^−2 hr^−1
- NMP partition in the water phase [5]: 98%
- [IPM]/[H2O] partition coefficient of NMP [5]: 0.02±0.001 and 0.02
- Papp at 24 h, 10 % v/v (in vitro): 0.03 ×10⁻⁶ cm/s
- Papp at 24 h, 20 % v/v (in vitro): 0.0178 ×10⁻⁶ cm/s
- Papp at 24 h, 40 % v/v (in vitro): 0.0281 ×10⁻⁶ cm/s
- Papp at 24 h, 50 % v/v (in vitro): 0.00861 ×10⁻⁶ cm/s
- Papp at 24 h, 60 % v/v (in vitro): 0.0758 ×10⁻⁶ cm/s
- Papp at 24 h, 80 % v/v (in vitro): 1.74 ×10⁻⁶ cm/s
- Papp at 24 h, 90 % v/v (in vitro): 4.36 ×10⁻⁶ cm/s
- Papp at 24 h, 100 % v/v (in vitro): 1.75 ×10⁻⁶ cm/s
- NMP Fluxss ([6]; 10% NMP): 0.007 ± 0.007 μg/cm^2/hr
- NMP Fluxss ([6]; 20% NMP): 0.008 ± 0.003 μg/cm^2/hr
- NMP Fluxss ([6]; 40% NMP): 0.026 ± 0.021 μg/cm^2/hr
- NMP Fluxss ([6]; 50% NMP): 0.010 ± 0.002 μg/cm^2/hr
- NMP Fluxss ([6]; 60% NMP): 0.106 ± 0.058 μg/cm^2/hr
- NMP Fluxss ([6]; 80% NMP): 3.26 ± 0.74 μg/cm^2/hr
- NMP Fluxss ([6]; 90% NMP): 9.18 ± 0.53 μg/cm^2/hr
- NMP Fluxss ([6]; 100% NMP): 12.6 ± 0.5 μg/cm^2/hr

Structure (SMILES): CCCNC(C)C(=O)Nc1ccccc1C (centres unmarked) [Prilocaine HCl]
- Fluxss from H2O [7]: 2.44 ± 0.98 μg/cm^2/hr
- Fluxss from H2O/NMP [7]: 6.31 ± 0.14 μg/cm^2/hr
